Measured values as given in patent US9669028B2, “Substituted 5-(pyrazin-2-yl)-1H-pyrazolo [3, 4-B] pyridine and pyrazolo [3, 4-B] pyridine derivatives as protein kinase inhibitors” (Arrien Pharmaceuticals LLC, priority 2011, dated 2017).
Values after ≈ are worked out from the molar mass of the structure shown. Each block holds one compound with its values, some of them ahead of it.

Assays:
[1] = tested on: MPTP-injected C57 black mice; test: MPTP mouse model, post-treatment study; type: in vivo; details: post-administration, oral and i.v routes
Procedure: 32 C57 black mice (C57/bl6, 6-8 week old, 25-30 g) were purchased from Charles River Laboratories, Ohio. […] All animals were housed in Laboratory of Animal Resources vivarium at Iowa State University under standard conditions: constant temperature (22±1° C.), humidity (relative, 30%), and a 12-h light/dark cycle. Mice were allowed free access to food and water. Use of the animals and protocol procedures were approved and supervised by the Committee on Animal Care at Iowa State University (Ames, Iowa). Test compounds were dissolved in PBS for this study. Prior to treatment animals were pre-trained on rotarod for at least 3 minutes every day for three successive days. Group A animals were injected with saline (i.p.) to be used as controls. MPTP was dissolved in PBS and injected intraperitoneally (i.p.) at doses of 25 mg/kg, once daily for 5 days to group B, C and D animals. On day 4, prior to 4th MPTP injection, group C animals received test compounds (30 mg/kg, oral) daily for eight days. Similarly, on day 4, prior to 4th MPTP injection, group D animals received test compounds (5 mg/kg, i.v) daily for eight days. On day 9 (Post-test compounds administration) or day 12 (7 days post-MPTP), 4 animals/group were sacrificed, different brain regions including striatum and substantia nigra were dissected. Left striatum were used for neurochemical analysis. Other 4 animals/group were perfused and used for TH immunohistological studies.

LRRK2 G2019S = LRRK2 G2019S (Homo sapiens (Human), UniProt Q5S007, G2019S); test: LRRK2 G2019S Kinase Assay; type: biochemical; details: 10 μM ATP
LRRK2 G2019S, sequence (Q5S007 970-2527 G2019S): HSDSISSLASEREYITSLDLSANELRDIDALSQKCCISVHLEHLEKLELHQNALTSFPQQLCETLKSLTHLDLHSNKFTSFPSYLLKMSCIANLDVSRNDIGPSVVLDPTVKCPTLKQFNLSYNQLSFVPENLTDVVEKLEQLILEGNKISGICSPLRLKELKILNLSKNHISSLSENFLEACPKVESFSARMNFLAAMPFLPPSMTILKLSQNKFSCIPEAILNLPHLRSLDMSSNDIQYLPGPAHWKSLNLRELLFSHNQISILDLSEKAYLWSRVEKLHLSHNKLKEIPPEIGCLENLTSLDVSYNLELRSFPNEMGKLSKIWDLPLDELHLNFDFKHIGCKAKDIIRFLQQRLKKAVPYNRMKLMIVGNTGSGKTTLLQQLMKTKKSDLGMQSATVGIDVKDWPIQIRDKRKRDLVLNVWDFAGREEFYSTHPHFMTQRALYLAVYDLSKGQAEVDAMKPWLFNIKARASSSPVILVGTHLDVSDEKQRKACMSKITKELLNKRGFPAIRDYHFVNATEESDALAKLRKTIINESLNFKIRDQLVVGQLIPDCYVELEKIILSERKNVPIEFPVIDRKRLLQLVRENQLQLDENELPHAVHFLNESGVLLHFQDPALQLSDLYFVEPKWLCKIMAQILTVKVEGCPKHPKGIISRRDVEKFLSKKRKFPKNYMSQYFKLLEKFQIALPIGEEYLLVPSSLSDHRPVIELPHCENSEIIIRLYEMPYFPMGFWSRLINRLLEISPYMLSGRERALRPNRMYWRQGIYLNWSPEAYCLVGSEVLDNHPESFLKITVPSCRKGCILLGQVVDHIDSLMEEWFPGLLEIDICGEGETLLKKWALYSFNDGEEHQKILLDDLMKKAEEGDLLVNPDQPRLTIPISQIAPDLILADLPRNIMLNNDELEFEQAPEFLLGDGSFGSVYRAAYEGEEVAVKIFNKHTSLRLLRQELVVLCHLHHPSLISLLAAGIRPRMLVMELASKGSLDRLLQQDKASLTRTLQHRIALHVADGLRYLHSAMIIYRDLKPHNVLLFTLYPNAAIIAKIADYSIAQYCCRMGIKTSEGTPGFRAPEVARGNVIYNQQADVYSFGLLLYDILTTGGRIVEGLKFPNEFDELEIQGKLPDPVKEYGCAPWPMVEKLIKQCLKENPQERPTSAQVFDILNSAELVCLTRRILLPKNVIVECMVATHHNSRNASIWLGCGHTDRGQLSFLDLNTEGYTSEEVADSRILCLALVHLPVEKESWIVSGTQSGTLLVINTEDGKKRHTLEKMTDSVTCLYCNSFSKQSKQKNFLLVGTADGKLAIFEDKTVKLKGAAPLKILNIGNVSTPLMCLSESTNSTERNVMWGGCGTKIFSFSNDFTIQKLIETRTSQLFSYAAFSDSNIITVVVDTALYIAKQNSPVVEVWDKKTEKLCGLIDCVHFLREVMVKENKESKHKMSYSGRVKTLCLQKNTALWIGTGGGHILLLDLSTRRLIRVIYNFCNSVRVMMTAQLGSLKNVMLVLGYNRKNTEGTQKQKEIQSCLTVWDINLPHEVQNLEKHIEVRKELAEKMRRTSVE
Method in brief: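 Radiometric filter-binding assay: enzyme, substrate peptide and compound were mixed on ice, ATP added, then incubated 20 min at 30° C. Reaction was stopped with phosphoric acid and the peptide captured on filters. Incorporated radioactivity was read by scintillation counting; staurosporine served as reference.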

LRRK2 = LRRK2 (Homo sapiens (Human), UniProt Q5S007); test: LRRK2 Kinase Assay; type: biochemical; details: 10 μM ATP
LRRK2, sequence (Q5S007 970-2527): as the sequence (Q5S007 970-2527 G2019S) above, with S1050G counted along it
Method in brief: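 Radiometric filter-binding assay: compound pre-incubated ~20 min with kinase and substrate peptide in 20 mM HEPES pH 7.5, 10 mM MgCl2, 1% DMSO, then 10 μM ATP with 33P-ATP added.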

recombinant human MAO-B = recombinant human MAO-B (Homo sapiens (Human), UniProt P27338); test: Inhibition of monoamine oxidase MAO-B; type: biochemical; details: kynuramine 50 μM, 25 min at 37° C.
recombinant human MAO-B, sequence (P27338 whole entry): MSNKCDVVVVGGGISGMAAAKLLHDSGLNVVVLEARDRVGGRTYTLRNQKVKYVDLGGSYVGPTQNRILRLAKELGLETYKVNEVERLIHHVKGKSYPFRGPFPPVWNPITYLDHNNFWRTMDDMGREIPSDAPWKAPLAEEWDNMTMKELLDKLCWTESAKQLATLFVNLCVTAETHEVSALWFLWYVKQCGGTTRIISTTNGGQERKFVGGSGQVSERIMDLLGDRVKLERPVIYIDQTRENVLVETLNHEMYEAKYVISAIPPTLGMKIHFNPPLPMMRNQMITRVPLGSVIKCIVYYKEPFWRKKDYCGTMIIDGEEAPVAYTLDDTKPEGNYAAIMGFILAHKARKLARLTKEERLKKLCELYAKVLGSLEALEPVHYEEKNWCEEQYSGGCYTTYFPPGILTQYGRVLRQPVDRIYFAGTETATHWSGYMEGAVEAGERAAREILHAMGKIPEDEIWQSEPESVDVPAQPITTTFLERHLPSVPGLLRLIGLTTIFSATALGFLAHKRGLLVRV
Procedure: (§1) Test compounds (0.01-100 μM) final DMSO concentration 0.1%, were incubated with recombinant human MAO-A (2 μg/mL) or MAO-B (2 μg/mL) in the presence of the probe substrate kynuramine (50 μM) for 25 min at 37° C. […] The reactions were terminated by addition of methanol containing internal standard for analytical quantification. The quenched samples were incubated at 4° C. for 10 min and centrifuged at 4° C. for 10 min. The supernatant was removed and analyzed by LC-MS/MS for the probe metabolite 4-hydroxyquinoline.

recombinant human MAO-A = recombinant human MAO-A (Homo sapiens (Human), UniProt P21397); test: Inhibition of monoamine oxidase MAO-A; type: biochemical; details: kynuramine 50 μM, 25 min at 37° C.
recombinant human MAO-A, sequence (P21397 whole entry): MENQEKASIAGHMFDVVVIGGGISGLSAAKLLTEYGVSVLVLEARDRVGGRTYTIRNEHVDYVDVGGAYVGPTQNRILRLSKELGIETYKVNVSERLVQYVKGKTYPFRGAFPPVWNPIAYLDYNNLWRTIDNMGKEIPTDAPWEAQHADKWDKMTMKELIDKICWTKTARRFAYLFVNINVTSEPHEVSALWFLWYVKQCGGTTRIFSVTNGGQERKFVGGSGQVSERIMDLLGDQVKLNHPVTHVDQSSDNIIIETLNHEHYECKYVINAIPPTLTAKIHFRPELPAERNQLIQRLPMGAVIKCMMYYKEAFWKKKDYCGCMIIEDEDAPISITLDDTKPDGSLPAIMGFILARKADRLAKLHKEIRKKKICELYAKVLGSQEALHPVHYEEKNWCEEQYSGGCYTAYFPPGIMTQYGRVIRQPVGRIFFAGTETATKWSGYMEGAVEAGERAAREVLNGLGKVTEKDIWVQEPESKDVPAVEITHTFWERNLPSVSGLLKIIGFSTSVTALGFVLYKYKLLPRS
Procedure: as §1

in vivo = details: male, Sprague Dawley, rat
Source text: To investigate the pharmacokinetic profiles of test compound following intravenous bolus administration and oral gavage in male Sprague Dawley rats.

DYRK1A = DYRK1A (Homo sapiens (Human), UniProt Q13627); test: In vitro DYRK1A inhibition assay; type: biochemical
Procedure: Briefly, specific kinase/substrate pairs along with required cofactors were prepared in reaction buffer; 20 mM Hepes (pH 7.5), 10 mM MgCl2, 1 mM EGTA, 0.02% Brij35, 0.02 mg/ml BSA, 0.1 mM Na3VO4, 2 mM DTT, 1% DMSO. Compounds were delivered into the reaction, followed ˜20 min later by addition of a mixture of ATP (Sigma) and 33P ATP (PerkinElmer) to a final concentration of 10 μM. […] IC50 values and curve fits were obtained using Prism (GraphPad Software). Kinome tree representations were prepared using Kinome Mapper (http://www.reactionbiology.com/apps/kinome/mapper/Launch Kinome.htm).
The 2×DYRK1A/Ser/Thr 18 mixture was prepared in 50 mM HEPES pH 7.5, 0.01% BRIJ-35, 10 mM MgCl2, 1 mM EGTA.

[2] = tested on: MPTP-injected C57 black mice; test: MPTP mouse model of Parkinson's disease, oral pre-treatment; type: in vivo
[3] = tested on: 299 protein kinases+17 additional preview kinases; test: Protein Kinase Selectivity Profiler; type: biochemical, human; details: LRRK2, LRRK2 G2019S, CHK1, DYRK1A, FLT3, MLK1, TNIK, TRKA; single dose 0.5 μM, 1 μM; 10 μM ATP
Procedure: In vitro profiling of the 317 member kinase panel was performed at Reaction Biology Corporation using the “HotSpot” assay platform. Briefly, specific kinase/substrate pairs along with required cofactors were prepared in reaction buffer; 20 mM Hepes (pH 7.5), 10 mM MgCl2, 1 mM EGTA, 0.02% Brij35, 0.02 mg/ml BSA, 0.1 mM Na3VO4, 2 mM DTT, 1% DMSO. Compounds were delivered into the reaction, followed ˜20 min later by addition of a mixture of ATP (Sigma) and 33P ATP (PerkinElmer) to a final concentration of 10 μM. Reactions were carried out at 25° C. for 120 min, followed by spotting of the reactions onto P81 ion exchange filter paper (Whatman). Unbound phosphate was removed by extensive washing of filters in 0.75% phosphoric acid. […] IC50 values and curve fits were obtained using Prism (GraphPad Software). Kinome tree representations were prepared using Kinome Mapper (http://www.reactionbiology.com/apps/kinome/mapper/Launch Kinome.htm). Specifically for the LRRK2 enzyme the substrate LRRKtide (gene bank and protein access numbers NP_940980.2 Q5S007) and clone aa 970-2527 expressed in baculovirus in insect cells with N-terminal GST tag was employed in the study protocol. In the case of DYRK1A (SEQ ID NO 16) the substrate casein (gene bank and protein access numbers NP_001387 Q13627) full length clone expressed in insect with n-terminal tag was used.
A control compound was tested in 10-dose IC50 mode with 3-fold serial dilution starting at 20 μM. Reactions were carried out at 10 μM ATP. Data pages include raw data, % Enzyme activity (relative to DMSO controls), and curve fits.

[4] = tested on: Rat hepatoma (H4IIE) cell line; test: In vitro toxicology, general cytotoxicity; type: cell-based; details: 24 hrs
Procedure: Cells were seeded into 96-well plates and cultured in medium containing 20% bovine serum. […] General cytotoxicity was evaluated by monitoring membrane integrity (MBR, cell supernatant), cell mass (PI) and mitochondrial function (cellular ATP levels). Rotenone was included as a positive control because it produces measurable effects in all three assays. DMSO at 0.5% in medium was included as a negative control. Three wells per exposure concentration were used in each assay. Results are summarized in Table 8 and are expressed as percent of control, with control values set at 100%. […] Test compounds 13 and 13 HCl were rank-ordered from most to least toxic based on individual membrane integrity and ATP responses as well as resultant TC50 values.
Test compounds 13 and 13 HCl were rank-ordered from highest to lowest probability of producing toxicity based first on membrane toxicity, then on ATP, and finally on cell mass (PI). It is important to note that within a given grouping compounds may be classified as to their primary effect being either cytotoxic, cytostatic, or reducing mitochondrial function. In general, compound responses above 80% of vehicle control are considered to be low-to-no effect, moderates generally rank 80% to 50% of vehicle control, and those compounds that cross the 50% mark are considered to have higher probability of toxicity.

[5] = orally administered, pre-treatment

IC50 (LRRK2 G2019S): < 500 nM | IC50 (LRRK2): < 500 nM | IC50 (recombinant human MAO-B): 8800 nM | IC50 (recombinant human MAO-A): > 100000 nM | AUC(0-t) (in vivo; iv, 5 mg/kg): 1020 ng·h/mL | Vd (in vivo; iv, 5 mg/kg): 15.2 L/kg | clearance (in vivo; iv, 5 mg/kg): 123 mL/min/kg | half-life (in vivo; iv, 5 mg/kg): 2.26 h | AUC(0-t) (in vivo; po, 30 mg/kg): 1040 ng·h/mL | Cmax (in vivo; po, 30 mg/kg): 133 ng/mL | F (in vivo; po, 30 mg/kg): 24% | Tmax (in vivo; po, 30 mg/kg): 6.7 h | IC50 (DYRK1A): < 500 nM | % enzyme inhibition relative to DMSO controls [3]: 5-15%
SMILES: c1cc2cc(-c3cncc(N4CCOCC4)n3)cnc2[nH]1 [Compound 148, 4-(6-(1H-pyrrolo[2,3-b]pyridin-5-yl)pyrazin-2-yl)morpholine]
protection against MPTP-induced histological deficits [1]: significantly protected | protection against MPTP-induced motor-deficits [1]: significantly protected | protection against MPTP-induced neurochemical deficits [1]: not against neurochemical deficits | protection against MPTP-induced TH cell loss and dopaminergic degeneration in substantia nigra and striatum ([2]; 10 mg/kg and 30 mg/kg oral): dose-dependent protection | locomotor activities in MPTP-injected mice [2, 5]: Improve Locomotor Activities | striatal dopamine levels in MPTP treated mice [2, 5]: Restore Striatal Dopamine Levels

SMILES: C=C(C)[C@H]1Cc2c(ccc3c2O[C@@H]2COc4cc(OC)c(OC)cc4[C@@H]2C3=O)O1 [Rotenone, reference compound]
solubility (physchem): 1 µM (≈ 0.394 µg/mL) | ATP % Control ([4]; 0.001 μM): 98% | Cell Mass % Control ([4]; 0.001 μM): 105% | Mem Tox % Control ([4]; 0.001 μM): 100% | ATP % Control ([4]; 0.1 μM): 34% | Cell Mass % Control ([4]; 0.1 μM): 54% | Mem Tox % Control ([4]; 0.1 μM): 98% | ATP % Control ([4]; 1 μM): 4% | Cell Mass % Control ([4]; 1 μM): 25% | Mem Tox % Control ([4]; 1 μM): 46% | ATP TC50 [4]: 80 nM | Cell Mass TC50 [4]: 230 nM | Mem Tox TC50 [4]: 930 nM
